From patent publication US11524003B2, “Alpha-amino esters of hydroxypropylthiazolidine carboxamide derivative and salt form, crystal polymorph thereof” (ObsEva S.A., priority 2016, dated 2022)

Tested on: PGF2α-induced myometrial contractility
Test: PGF2α-induced contractions of human myometrial biopsies (myograph)
Conditions: 6, 60, 600, 6000 nM
Experimental: Experiments were performed using a DMT Myograph 800 MS (ADINSTRUMENTS™) in oxygenated Kreb's solution with ADI Powerlab software. Once regular contractions had been established for at least 20 minutes, baseline measurements of spontaneous contraction frequency were recorded. The measurement of spontaneous contraction frequency is represented on the x-axis as “Spon.” A DMSO control or compound II was then added to each myometrial sample at the indicated concentrations and the effects of control or compound II on contractile frequency were measured over the ensuing 10-minute period. This time point is represented on the x-axis as “Compound II.” The effects of compound II on contractile frequency in the presence of PGF2α were subsequently measured by challenging the myometrial tissue samples with increasing concentrations of PGF2α (1 nM, 10 nM, and 100 nM) at sequential 10-minute intervals. […] Once regular contractions had been established for at least 20 minutes, baseline measurements of spontaneous work done per contraction were recorded. The measurement of spontaneous work done per contraction is represented on the x-axis as “Spon.” A DMSO control or compound II was then added to each myometrial sample at the indicated concentrations and the effects of control or compound II on work done per contraction were measured over the ensuing 10-minute period. […]

O=C(N[C@@H](CCO)c1ccc(F)cc1)[C@@H]1SCCN1S(=O)(=O)c1ccc(-c2ccccc2)cc1 [Compound II, 3-([1,1′-biphenyl]-4-ylsulfonyl)-N-[1-(4-fluorophenyl)-3-hydroxypropyl]-1,3-thiazolidine-2-carboxamide]
Effect on PGF2α-induced myometrial contractility: suppressing both PGF2α-induced and OT-induced myometrial contractility in a dose-dependent fashion
